We go through 19 compounds from PubChem BioAssay AID330 (DTP/NCI, 2004).

In the assay the test system is P388 leukemia ip, CD2F1 mice, survival T/C. The assay can be described thus: NCI In Vivo Anticancer Drug Screen. Data for tumor model P388 Leukemia (intraperitoneal) in CD2F1 (CDF1) mice. The following applies: endpoint: median survival time, higher = longer survival. In outline: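 Mice carrying the transplanted tumor received test compound or vehicle. Survival was recorded in each group, and the value is the treated-group measurement divided by that of the vehicle-treated control group.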

[1] abbreviates: dose: 50.0 mg/kg/injection, schedule: Q01DX005 (ip), vehicle: Klucel (hydroxypropylcellulose) (HPC).
The mark [2] stands for this setting: dose: 100.0 mg/kg/injection, schedule: Q01DX005 (ip), vehicle: Klucel (hydroxypropylcellulose) (HPC).
Setting [3] is: dose: 200.0 mg/kg/injection, schedule: Q01DX005 (ip), vehicle: Klucel (hydroxypropylcellulose) (HPC).
The mark [4] stands for this setting: dose: 60.0 mg/kg/injection, schedule: Q01DX005 (ip), vehicle: saline with Tween-80.
The mark [5] stands for this setting: dose: 200.0 mg/kg/injection, schedule: Q01DX005 (ip), vehicle: saline with Tween-80.
Setting [6] is: dose: 50.0 mg/kg/injection, schedule: Q01DX005 (ip), vehicle: saline.
Setting [7] is: dose: 50.0 mg/kg/injection, schedule: Q01DX005 (ip), vehicle: saline with Tween-80.
[8] abbreviates: dose: 100.0 mg/kg/injection, schedule: Q01DX005 (ip), vehicle: saline with Tween-80.
[9] abbreviates: dose: 120.0 mg/kg/injection, schedule: Q01DX005 (ip), vehicle: saline with Tween-80.

Values joined by “and” are separate entries in the source; they are usually repeats but may differ in a detail not shown here. Equal values may be shown once. Toxic doses and inconclusive results are not listed.

On to `CC[C@]12CN3CCc4c([nH]c5ccccc45)[C@@](C(=O)OC)(c4cc5c(cc4OC)N(C=O)[C@H]4[C@@](O)(C(=O)OC)[C@H](OC(C)=O)[C@]6(CC)C=CCN7CC[C@]54[C@@H]76)C[C@H](C3)[C@H]1O2`, for which the T/C was 123 % of control (dose: 1.0 mg/kg/injection, schedule: Q01DX009 (ip), vehicle: saline); 166 % of control (dose: 4.0 mg/kg/injection, schedule: Q01DX009 (ip), vehicle: saline); 175 % of control (dose: 6.0 mg/kg/injection, schedule: Q01DX009 (ip), vehicle: saline).

Take `CN(C)CCCSc1ccccc1NC1=C(Cl)C(=O)C(Nc2ccccc2SCCCN(C)C)=C(Cl)C1=O`: the T/C is, setting by setting: (dose: 6.25 mg/kg/injection, schedule: Q01DX005 (ip), vehicle: Klucel (hydroxypropylcellulose) (HPC)) 100 % of control; (dose: 12.5 mg/kg/injection, schedule: Q01DX005 (ip), vehicle: Klucel (hydroxypropylcellulose) (HPC)) 106 % of control; (dose: 25.0 mg/kg/injection, schedule: Q01DX005 (ip), vehicle: Klucel (hydroxypropylcellulose) (HPC)) 98 % of control; under setting [1], 106 % of control; under setting [2], 108 % of control; under setting [3], 104 % of control.

With `Cc1nc2ccc(Br)cc2c(=O)n1-c1ccc(-c2n[nH]c(=S)n2-c2ccccc2)cc1`, the T/C reads like this: under setting [1], 102 % of control; under setting [2], 104 % of control; under setting [3], 104 % of control.

Consider `CCOC(=O)C(C(=O)OCC)=C(C)C`, for which the T/C (dose: 21.3 mg/kg/injection, schedule: Q01DX009 (ip), vehicle: saline with Tween-80) was 93 % of control; the T/C (dose: 42.5 mg/kg/injection, schedule: Q01DX009 (ip), vehicle: saline with Tween-80) is 90 % of control; the T/C (dose: 85.0 mg/kg/injection, schedule: Q01DX009 (ip), vehicle: saline with Tween-80) was 91 % of control; the T/C (dose: 170.0 mg/kg/injection, schedule: Q01DX009 (ip), vehicle: saline with Tween-80) was 93 % of control; the T/C (dose: 177.0 mg/kg/injection, schedule: Q01DX009 (ip), vehicle: saline with Tween-80) is 123 % of control; the T/C (dose: 400.0 mg/kg/injection, schedule: Q01DX009 (ip), vehicle: saline with Tween-80) was 120 % of control.

As for `OCC12C=COC1OC2(c1ccccc1)c1ccccc1` (stereo not given), the T/C runs as follows: (dose: 15.0 mg/kg/injection, schedule: Q01DX005 (ip), vehicle: saline with Tween-80) 100 % of control; (dose: 30.0 mg/kg/injection, schedule: Q01DX005 (ip), vehicle: saline with Tween-80) 95 % of control; under setting [4], 89 % of control and 98 % of control.

For `COC(=O)C1=CCN2CCCC12C` (stereo not given), the T/C was 97 % of control (dose: 25.0 mg/kg/injection, schedule: Q01DX001 (ip), vehicle: saline); 101 % of control (dose: 50.0 mg/kg/injection, schedule: Q01DX001 (ip), vehicle: saline); 105 % of control (dose: 100.0 mg/kg/injection, schedule: Q01DX001 (ip), vehicle: saline).

For `O=C(NC1CCC(CC2CCC(NC(=O)C34CC5CC(CC(C5)C3)C4)CC2)CC1)C12CC3CC(CC(C3)C1)C2` (stereo not given), the T/C runs as follows: (dose: 0.4 mg/kg/injection, schedule: Q01DX005 (ip), vehicle: saline with Tween-80) 97 % of control; (dose: 0.8 mg/kg/injection, schedule: Q01DX005 (ip), vehicle: saline with Tween-80) 98 % of control; (dose: 1.56 mg/kg/injection, schedule: Q01DX005 (ip), vehicle: saline with Tween-80) 91 % of control; (dose: 1.6 mg/kg/injection, schedule: Q01DX005 (ip), vehicle: saline with Tween-80) 97 % of control; (dose: 3.2 mg/kg/injection, schedule: Q01DX005 (ip), vehicle: saline with Tween-80) 87 % of control; (dose: 6.25 mg/kg/injection, schedule: Q01DX005 (ip), vehicle: saline with Tween-80) 89 % of control. In addition, under setting [5], the T/C was 86 % of control.

Take `O=C1C=CC=C2C(=O)C(c3ccccc3)(c3ccccc3)[N+]([O-])=C12`: the T/C is 100 % of control (dose: 50.0 mg/kg/injection, schedule: Q04DX002 (ip), vehicle: saline); 98 % of control (dose: 100.0 mg/kg/injection, schedule: Q04DX002 (ip), vehicle: saline); 111 % of control (dose: 200.0 mg/kg/injection, schedule: Q04DX002 (ip), vehicle: saline).

For `CCCN=C(C)NO`, the T/C by setting is: under setting [6], 98 % of control; (dose: 100.0 mg/kg/injection, schedule: Q01DX005 (ip), vehicle: saline) 101 % of control; (dose: 200.0 mg/kg/injection, schedule: Q01DX005 (ip), vehicle: saline) 102 % of control.

Turning to `CC1(C)CC(NC(=O)C(C)(C)Oc2ccc(Cl)cc2)CC(C)(C)N1`, the T/C under setting [7] is 107 % of control, the T/C under setting [8] was 100 % of control and the T/C under setting [5] is 98 % of control.

On to `N#CC(C(=O)C(=O)Nc1cccc(C(F)(F)F)c1)c1ccccc1` (stereo not given), for which the T/C under setting [7] is 93 % of control and the T/C under setting [8] was 100 % of control.

On to `CC(C)(Cc1nocc1C(C)(C)CC#N)c1cc(CC(C)(C)C2(C)OCCO2)no1`, for which the T/C is 95 % of control under setting [4] and 88 % of control under setting [9].

Regarding `COc1cc2c3c(cccc3c1)C(=O)N(CCN1CCCC1)C2=O`, the T/C by setting is: (dose: 17.3 mg/kg/injection, schedule: Q01DX009 (ip), vehicle: saline with Tween-80) 112 % of control; (dose: 34.7 mg/kg/injection, schedule: Q01DX009 (ip), vehicle: saline with Tween-80) 116 % of control; (dose: 50.0 mg/kg/injection, schedule: Q04DX003 (ip), vehicle: Klucel (hydroxypropylcellulose) (HPC)) 100 % of control; (dose: 69.3 mg/kg/injection, schedule: Q01DX009 (ip), vehicle: saline with Tween-80) 116 % of control; (dose: 100.0 mg/kg/injection, schedule: Q04DX003 (ip), vehicle: Klucel (hydroxypropylcellulose) (HPC)) 101 % of control; (dose: 200.0 mg/kg/injection, schedule: Q04DX003 (ip), vehicle: Klucel (hydroxypropylcellulose) (HPC)) 100 % of control.

For the compound `O=C(NC(Cc1c[nH]c2ccccc12)C(=O)O)OCC1c2ccccc2-c2ccccc21` (stereo not given), the T/C under setting [1] is 100 % of control and the T/C under setting [2] was 95 % of control.

Consider `CCOc1ccc(N2C(=O)C(=O)C(C#N)(c3nc4ccccc4o3)C(=O)C2=O)cc1`, for which the T/C was 98 % of control under setting [4]; 104 % of control under setting [9]; 105 % of control (dose: 240.0 mg/kg/injection, schedule: Q01DX005 (ip), vehicle: saline with Tween-80).

With `CC(C)c1ccc(Nc2n[nH]c(=S)s2)cc1`, the T/C by setting is: under setting [1], 105 % of control; under setting [2], 100 % of control; under setting [3], 99 % of control.

Turning to `CC(=O)C1CO1` (stereo not given), the T/C runs as follows: (dose: 12.5 mg/kg/injection, schedule: Q01DX005 (ip), vehicle: saline) 105 % of control; (dose: 25.0 mg/kg/injection, schedule: Q01DX005 (ip), vehicle: saline) 107 % of control; under setting [6], 110 % of control and 116 % of control.

In the case of `Cc1cc(Br)c(NC(=O)c2c(-c3c(Cl)cccc3Cl)noc2C)c(Br)c1`, the T/C runs as follows: (dose: 60.0 mg/kg/injection, schedule: Q01DX005 (ip), vehicle: Klucel (hydroxypropylcellulose) (HPC)) 88 % of control; (dose: 120.0 mg/kg/injection, schedule: Q01DX005 (ip), vehicle: Klucel (hydroxypropylcellulose) (HPC)) 95 % of control.

For `CCCCCCCCCC[N+]1([O-])CCOCC1`, the T/C (dose: 50.0 mg/kg/injection, schedule: Q01DX009 (ip), vehicle: saline) is 100 % of control and the T/C (dose: 100.0 mg/kg/injection, schedule: Q01DX009 (ip), vehicle: saline) is 89 % of control.
